Where two headings read alike, the source gives them in different places.
Assays:
[1] = system: Pyricularia oryzae Carvara KA301; test: whole plant or invertebrate; assay type: in vivo; settings: for pest or weed control at 2 ppm / pest or weed control at 10 ppm / pest or weed control at 50 ppm / pest or weed control at 100 ppm: Pyricularia oryzae, read-out: RCB control value (C.V.); for RCB control value (C.V.): rice blast
[2] = system: Puccinia recondita; test: Fungicidal activity against wheat leaf rust (WLR) disease, control value; assay type: in vivo; settings: for pest or weed control at 100 ppm / pest or weed control at 2 ppm / pest or weed control at 10 ppm / pest or weed control at 50 ppm: read-out: WLR control value (C.V.)
[3] = system: Rhizoctonia solani AG-1; test: Fungicidal activity against rice sheath blight (RSB) disease, control value; settings: for pest or weed control at 100 ppm / pest or weed control at 2 ppm / pest or weed control at 10 ppm / pest or weed control at 50 ppm: Rhizoctonia solani, AG1, in Oryza sativa, read-out: RSB control value (C.V.); for RSB control value (C.V.): 100 ppm, rice sheath blight
[4] = system: Phytophthora infestans; test: whole plant or invertebrate; assay type: in vivo; settings: for pest or weed control at 50 ppm / pest or weed control at 100 ppm / pest or weed control at 2 ppm / pest or weed control at 10 ppm: Phytophthora infestans, in Solanum lycopersicum, read-out: TLB control value (C.V.); for TLB control value (C.V.): tomato late blight
[5] = system: Botrytis cinerae; test: Fungicidal activity against cucumber gray mold rot (CGM) disease, control value; assay type: in vivo; settings: for pest or weed control at 100 ppm / CGM control value (C.V.): 100 ppm
Description: Botrytis cinerae, which was isolated from cucumber infected thereby, was inoculated on a potato agar medium (PEC) and cultured under a 12L/12D cycle at 25° C. for 15 days to form spore. The spores were scraped, filtered through a gauze and then suspended in Potato Dextrose broth at a concentration of 1×10^6 spore/ml. The spore suspension was sprayed on a cucumber plant having one leaf. The cucumber plant was held in a humidified room at 20° C. for 3 days. L.A. on a leaf was measured to calculate a C.V.

[6] = system: Erysiphae graminis; test: Fungicidal activity against barley powdery mildew (BPM) disease, control value; assay type: in vivo; settings: for pest or weed control at 100 ppm / pest or weed control at 2 ppm / pest or weed control at 10 ppm / pest or weed control at 50 ppm: 168 h, read-out: BPM control value (C.V.)
[7] = Botrytis, cucumber gray mold rot, read-out: CGM control value (C.V.)
[8] = Hordeum vulgare, 100 ppm, barley powdery mildew
[9] = Hordeum vulgare, 2 ppm, barley powdery mildew
[10] = Hordeum vulgare, 10 ppm, barley powdery mildew
[11] = Hordeum vulgare, 50 ppm, barley powdery mildew
[12] = Botrytis, read-out: CGM control value (C.V.)

| Structure (SMILES) | pest or weed control at 2 ppm [1] [%] | pest or weed control at 10 ppm [1] [%] | pest or weed control at 50 ppm [1] [%] | pest or weed control at 100 ppm [1] [%] | pest or weed control at 100 ppm ([2]; 100 ppm, wheat leaf rust) [%] | pest or weed control at 100 ppm [3] [%] | pest or weed control at 50 ppm [4] [%] | pest or weed control at 100 ppm [4] [%] | pest or weed control at 100 ppm [5, 7] [%] | pest or weed control at 100 ppm [6, 8] [%] | pest or weed control at 2 ppm ([2]; 2 ppm, wheat leaf rust) [%] | pest or weed control at 10 ppm ([2]; 10 ppm, wheat leaf rust) [%] | pest or weed control at 50 ppm ([2]; 50 ppm, wheat leaf rust) [%] | pest or weed control at 2 ppm [3] [%] | pest or weed control at 10 ppm [3] [%] | pest or weed control at 50 ppm [3] [%] | pest or weed control at 2 ppm [4] [%] | pest or weed control at 10 ppm [4] [%] | pest or weed control at 2 ppm [6, 9] [%] | pest or weed control at 10 ppm [6, 10] [%] | also measured |
| --- | --- | --- | --- | --- | --- | --- | --- | --- | --- | --- | --- | --- | --- | --- | --- | --- | --- | --- | --- | --- | --- |
| CO/N=C(/C(=O)OC)c1ccccc1COc1cccc(C=C(Br)Br)c1 [Example 5, methyl-(E)-2-(2-((3-(2,2-dibromovinyl)phenoxy)methyl)phenyl)-2-methoxyiminoacetate] | 90 | 97 | 100 | 100 | 92 | 32 | 55 | 93 | 34 | 87 |  |  |  |  |  |  |  |  |  |  |  |
| CNC(=O)/C(=N/OC)c1ccccc1COc1cccc(C=C(Cl)Br)c1 [Example 16, (2E)-2-(2-((3-(2-bromo-2-chlorovinyl)phenoxy)methyl)phenyl)-2-methoxyimino-N-methylacetamide] | 100 | 100 | 100 | 100 | 100 | 100 | 100 | 100 | 65 | 100 | 100 | 100 | 100 | 95 | 98 | 100 | 93 | 95 | 100 | 100 | pest or weed control at 50 ppm [6, 11]: 100% |
| CNC(=O)/C(=N/OC)c1ccccc1COc1ccc(C=C(Br)Br)cc1C [Example 66, (E)-2-(2-((4-(2,2-dibromovinyl)-2-methylphenoxy)methyl)phenyl)-2-methoxyimino-N-methylacetamide] | 60 | 90 | 100 | 100 |  | 100 | 98 | 100 |  |  |  |  |  | 65 | 98 | 100 | 75 | 90 |  |  | pest or weed control at 2 ppm ([2]; Puccinia recondita, 2 ppm): 95%; pest or weed control at 10 ppm ([2]; Puccinia recondita, 10 ppm): 100%; pest or weed control at 50 ppm ([2]; Puccinia recondita, 50 ppm): 100%; pest or weed control at 100 ppm ([2]; Puccinia recondita, 100 ppm): 100%; pest or weed control at 100 ppm [5, 12]: 45%; pest or weed control at 2 ppm ([6]; 2 ppm): 97%; pest or weed control at 10 ppm ([6]; 10 ppm): 100%; pest or weed control at 50 ppm ([6]; 50 ppm): 100%; pest or weed control at 100 ppm ([6]; 100 ppm): 100% |
| CO/N=C(/C(=O)OC)c1ccccc1CON=C(C)c1cccc(C=C(Cl)Cl)c1 [Example 19, methyl-(E)-2-[[[[[2-[3-(2,2-dichlorovinyl)phenyl](1-methyl)methylidene]amino]oxy]methyl]phenyl]-2-methoxyiminoacetate] |  |  |  |  |  |  |  |  |  |  |  |  |  |  |  |  |  |  |  |  | RCB control value (C.V.) ([1]; 2 ppm): 98%; RCB control value (C.V.) ([1]; 10 ppm): 100%; RCB control value (C.V.) ([1]; 50 ppm): 100%; RCB control value (C.V.) ([1]; 100 ppm): 100%; WLR control value (C.V.) ([2]; 2 ppm, wheat leaf rust): 98%; WLR control value (C.V.) ([2]; 10 ppm, wheat leaf rust): 100%; WLR control value (C.V.) ([2]; 50 ppm, wheat leaf rust): 100%; WLR control value (C.V.) ([2]; 100 ppm, wheat leaf rust): 100%; RSB control value (C.V.) [3]: 80%; TLB control value (C.V.) ([4]; 2 ppm): 80%; TLB control value (C.V.) ([4]; 10 ppm): 92%; TLB control value (C.V.) ([4]; 50 ppm): 100%; TLB control value (C.V.) ([4]; 100 ppm): 100%; CGM control value (C.V.) ([5]; cucumber gray mold rot): 59%; BPM control value (C.V.) ([6]; 2 ppm, barley powdery mildew): 100%; BPM control value (C.V.) ([6]; 10 ppm, barley powdery mildew): 100%; BPM control value (C.V.) ([6]; 50 ppm, barley powdery mildew): 100%; BPM control value (C.V.) ([6]; 100 ppm, barley powdery mildew): 100% |
| CO/N=C(/C(=O)OC)c1ccccc1COc1ccc(C=C(F)F)cc1 [Example 9, methyl-(E)-2-(2-((4-(2,2-difluorovinyl)phenoxy)methyl)phenyl)-2-methoxyiminoacetate] | 100 | 100 | 100 | 100 | 100 | 10 | 100 | 100 | 50 | 100 | 100 | 100 | 100 |  |  |  | 100 | 100 | 15 | 60 | pest or weed control at 50 ppm [6, 11]: 93% |
| CO/N=C(/C(=O)OC)c1ccccc1COc1cccc(C=C(Cl)Cl)c1Cl [Example 43, methyl-(E)-2-(2-((2-chloro-3-(2,2-dichlorovinyl)phenoxy)methyl)phenyl)-2-methoxyiminoacetate] | 90 | 99 | 100 | 100 | 100 | 100 | 100 | 100 | 0 | 100 | 100 | 100 | 100 | 90 | 100 | 100 | 100 | 100 | 100 | 100 | pest or weed control at 50 ppm [6, 11]: 100% |
| CO/N=C(/C(=O)OC)c1ccccc1CON=C(C)c1cccc(C=C(Cl)Br)c1 [Example 35, methyl-(E)-2-[[[[[2-[3-(2-bromo-2-chlorovinyl)phenyl](1-methyl)methylidene]amino]oxy]methyl]phenyl]-2-methoxyiminoacetate] |  |  |  |  |  |  |  |  |  |  |  |  |  |  |  |  |  |  |  |  | RCB control value (C.V.) ([1]; 2 ppm): 70%; RCB control value (C.V.) ([1]; 10 ppm): 100%; RCB control value (C.V.) ([1]; 50 ppm): 100%; RCB control value (C.V.) ([1]; 100 ppm): 100%; WLR control value (C.V.) ([2]; 2 ppm, wheat leaf rust): 100%; WLR control value (C.V.) ([2]; 10 ppm, wheat leaf rust): 100%; WLR control value (C.V.) ([2]; 50 ppm, wheat leaf rust): 100%; WLR control value (C.V.) ([2]; 100 ppm, wheat leaf rust): 100%; RSB control value (C.V.) [3]: 10%; TLB control value (C.V.) ([4]; 10 ppm): 10%; TLB control value (C.V.) ([4]; 50 ppm): 90%; TLB control value (C.V.) ([4]; 100 ppm): 100%; CGM control value (C.V.) ([5]; cucumber gray mold rot): 50%; BPM control value (C.V.) ([6]; 2 ppm, barley powdery mildew): 15%; BPM control value (C.V.) ([6]; 10 ppm, barley powdery mildew): 60%; BPM control value (C.V.) ([6]; 50 ppm, barley powdery mildew): 93%; BPM control value (C.V.) ([6]; 100 ppm, barley powdery mildew): 95% |
| CNC(=O)/C(=N/OC)c1ccccc1COc1ccc(C=C(Br)Br)cc1Cl [Example 64, (E)-2-(2-((4-(2,2-dibromovinyl)-2-chlorophenoxy)methyl)phenyl)-2-methoxyimino-N-methylacetamide] | 100 | 100 | 100 | 100 |  | 100 | 100 | 100 |  |  |  |  |  | 95 | 100 | 100 | 99 | 100 |  |  | pest or weed control at 2 ppm ([2]; Puccinia recondita, 2 ppm): 100%; pest or weed control at 10 ppm ([2]; Puccinia recondita, 10 ppm): 100%; pest or weed control at 50 ppm ([2]; Puccinia recondita, 50 ppm): 100%; pest or weed control at 100 ppm ([2]; Puccinia recondita, 100 ppm): 100%; pest or weed control at 50 ppm ([5]; Botrytis, 50 ppm, read-out: CGM control value (C.V.)): 40%; pest or weed control at 100 ppm [5, 12]: 80%; pest or weed control at 2 ppm ([6]; 2 ppm): 97%; pest or weed control at 10 ppm ([6]; 10 ppm): 100%; pest or weed control at 50 ppm ([6]; 50 ppm): 100%; pest or weed control at 100 ppm ([6]; 100 ppm): 100% |
| CNC(=O)/C(=N/OC)c1ccccc1COc1ccc(C)cc1C=C(Cl)Cl [Example 46, (E)-2-(2-((2-(2,2-dichlorovinyl)-4-methylphenoxy)methyl)phenyl)-2-methoxyimino-N-methylacetamide] | 95 | 100 | 100 | 100 | 100 | 100 | 100 | 100 | 30 | 100 | 100 | 100 | 100 | 98 | 100 | 100 | 96 | 100 | 100 | 100 | pest or weed control at 50 ppm [6, 11]: 100% |
